Results from US10494378B2, “Fused ring pyrimidine compound, intermediate, and preparation method, composition and use thereof” (GUANGZHOU MAXINOVEL PHARMACEUTICALS CO., LTD., priority 2015, dated 2019).

Columns and labels:
Assay type in all cases: biochemical
FGFR1 kinase = molecular target: T1, FGFR1 kinase (Homo sapiens, UniProt P11362); assay: IC50 evaluation assay of FGFR1 kinase inhibition (Caliper); conditions: 28° C.; average of two tests; read-out: IC50 (nM) inhibiting FGFR 1 kinase
T1 construct: purchased Carna 08-133
T1 sequence (P11362 22-822): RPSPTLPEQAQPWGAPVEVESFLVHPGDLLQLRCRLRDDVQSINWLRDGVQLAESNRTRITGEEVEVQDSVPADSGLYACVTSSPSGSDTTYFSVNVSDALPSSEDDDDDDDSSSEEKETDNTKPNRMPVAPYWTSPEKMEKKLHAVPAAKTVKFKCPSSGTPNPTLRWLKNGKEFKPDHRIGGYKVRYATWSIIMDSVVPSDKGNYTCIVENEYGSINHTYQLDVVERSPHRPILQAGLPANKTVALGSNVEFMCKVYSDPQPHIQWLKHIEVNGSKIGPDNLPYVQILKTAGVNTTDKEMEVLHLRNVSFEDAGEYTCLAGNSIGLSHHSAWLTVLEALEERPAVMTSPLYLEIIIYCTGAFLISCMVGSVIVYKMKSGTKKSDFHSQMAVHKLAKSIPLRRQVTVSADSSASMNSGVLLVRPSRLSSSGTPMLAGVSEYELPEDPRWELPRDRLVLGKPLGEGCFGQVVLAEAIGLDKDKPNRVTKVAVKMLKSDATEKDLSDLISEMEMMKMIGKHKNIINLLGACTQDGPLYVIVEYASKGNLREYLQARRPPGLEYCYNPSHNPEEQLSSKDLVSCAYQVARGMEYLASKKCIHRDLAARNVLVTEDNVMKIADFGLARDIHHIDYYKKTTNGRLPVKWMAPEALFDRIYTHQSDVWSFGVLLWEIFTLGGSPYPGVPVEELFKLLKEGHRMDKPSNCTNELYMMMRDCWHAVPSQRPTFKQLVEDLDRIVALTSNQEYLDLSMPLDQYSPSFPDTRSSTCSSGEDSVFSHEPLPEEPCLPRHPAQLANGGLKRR
Protocol: (§1) 1. The compound was dissolved in 100% DMSO, diluted into solutions with appropriate concentration gradients with water according to experimental requirement, and added to a 96-well plate.
2. FGFR1 kinase (Carna, Cat. No. 08-133, Lot. No. 09CBS-0989) and FGFR2 kinase (Carna, Cat. No. 08-134, Lot. No. 07CBS-2468), JAK3 kinase (Carna, Cat. No. 08-135, Lot. No. 06CBS-3177) were diluted to the optimum concentration with the following buffer solution: 50 mM HEPES, pH 7.5, 0.0015% Brij-35, 2 mM DTT. Transfer to the 96-well plate and incubate with the compound at 28° C. for a period of time.
(§2) 3. The buffer solution (100 mM HEPES, pH 7.5, 0.0015% Brij-35, 0.2% Coating Reagent and […]) was added to terminate the reaction.
(§3) 4. The conversion rate was read with Caliper Reader. The inhibition rate was calculated as the average of two tests.

c-Src kinase = molecular target: T2, c-Src kinase (Homo sapiens, UniProt P12931); assay: IC50 evaluation assay of Src family kinase inhibition: c-Src; conditions: 28° C.; average of two tests; read-out: IC50 (nM) inhibiting Src family kinase c-Src
T2 construct: purchased Carna 08-173
T2 sequence (P12931 whole entry): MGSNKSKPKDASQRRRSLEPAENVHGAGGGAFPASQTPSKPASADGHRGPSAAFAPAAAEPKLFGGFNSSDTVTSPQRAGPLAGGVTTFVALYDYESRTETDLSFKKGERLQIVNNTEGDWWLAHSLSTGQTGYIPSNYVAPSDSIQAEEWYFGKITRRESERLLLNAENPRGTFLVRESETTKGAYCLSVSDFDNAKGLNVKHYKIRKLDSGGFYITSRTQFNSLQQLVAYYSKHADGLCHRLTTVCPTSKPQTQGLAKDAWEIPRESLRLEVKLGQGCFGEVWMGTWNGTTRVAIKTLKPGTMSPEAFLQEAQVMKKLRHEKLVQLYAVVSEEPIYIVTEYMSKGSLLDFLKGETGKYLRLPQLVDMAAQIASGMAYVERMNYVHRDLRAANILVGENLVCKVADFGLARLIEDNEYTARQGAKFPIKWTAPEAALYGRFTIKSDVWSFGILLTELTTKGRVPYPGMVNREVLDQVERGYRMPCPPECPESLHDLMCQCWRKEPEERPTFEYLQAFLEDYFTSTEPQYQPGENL
Protocol: as §1
(§4) 2. c-Src kinase (Carna, Cat. No. 08-173, Lot. No. 05CBS-1367), LYNαkinase (Carna, Cat. No. 08-171, Lot. No. 06CBS-3296D), FYN kinase (Carna, Cat. No. 08-068, Lot. No. 05CBS-1032), LCK kinase (Carna, Cat. No. 08-170, Lot. No. 07CBS-2482), HCK kinase (BPS, Cat. No. 40440, Lot. No. 1001), FGR kinase (Carna, Cat. No. 08-166, Lot. No. 05CBS-2781), YES kinase (Carna, Cat. No. 08-175, Lot. No. 06CBS-3247) were diluted to the optimum concentration with the following buffer solution: 50 mM HEPES, pH 7.5, 0.0015% Brij-35, 10 mM MgCl2, 2 mM DTT. Transfer to the 96-well plate and incubate with the compound at 28° C. for a period of time.
as §2, §3

LYNα kinase = molecular target: T3, LYNα kinase (Homo sapiens, UniProt P07948); assay: IC50 evaluation assay of Src family kinase inhibition: LYNα; conditions: 28° C.; average of two tests; read-out: IC50 (nM) inhibiting Src family kinase LYNα
T3 construct: purchased Carna 08-171
T3 sequence (P07948 whole entry): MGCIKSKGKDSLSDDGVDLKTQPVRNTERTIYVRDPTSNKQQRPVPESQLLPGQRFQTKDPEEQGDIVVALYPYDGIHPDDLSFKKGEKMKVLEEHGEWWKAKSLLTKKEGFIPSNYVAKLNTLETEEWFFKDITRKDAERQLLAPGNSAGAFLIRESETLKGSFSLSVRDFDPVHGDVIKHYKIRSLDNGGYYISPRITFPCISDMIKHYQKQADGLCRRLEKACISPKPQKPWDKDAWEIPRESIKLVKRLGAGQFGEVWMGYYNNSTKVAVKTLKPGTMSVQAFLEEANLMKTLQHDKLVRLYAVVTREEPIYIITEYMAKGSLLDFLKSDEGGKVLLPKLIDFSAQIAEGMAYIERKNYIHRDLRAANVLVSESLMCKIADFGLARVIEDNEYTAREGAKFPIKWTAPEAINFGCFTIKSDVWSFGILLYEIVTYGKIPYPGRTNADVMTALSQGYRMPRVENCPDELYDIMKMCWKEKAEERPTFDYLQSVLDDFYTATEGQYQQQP
Protocol: as §1, §4, §2, §3

FLT3-D835Y kinase = molecular target: T4, FLT3-D835Y kinase (Homo sapiens, UniProt P36888, D835Y); assay: IC50 evaluation assay of FLT3-D835Y kinase inhibition (Caliper); conditions: 28° C.; average of two tests; read-out: IC50 (nM) inhibiting FLT3-D835Y kinase
T4 construct: purchased Invitrogen PR7450A
T4 sequence (P36888 27-993 D835Y): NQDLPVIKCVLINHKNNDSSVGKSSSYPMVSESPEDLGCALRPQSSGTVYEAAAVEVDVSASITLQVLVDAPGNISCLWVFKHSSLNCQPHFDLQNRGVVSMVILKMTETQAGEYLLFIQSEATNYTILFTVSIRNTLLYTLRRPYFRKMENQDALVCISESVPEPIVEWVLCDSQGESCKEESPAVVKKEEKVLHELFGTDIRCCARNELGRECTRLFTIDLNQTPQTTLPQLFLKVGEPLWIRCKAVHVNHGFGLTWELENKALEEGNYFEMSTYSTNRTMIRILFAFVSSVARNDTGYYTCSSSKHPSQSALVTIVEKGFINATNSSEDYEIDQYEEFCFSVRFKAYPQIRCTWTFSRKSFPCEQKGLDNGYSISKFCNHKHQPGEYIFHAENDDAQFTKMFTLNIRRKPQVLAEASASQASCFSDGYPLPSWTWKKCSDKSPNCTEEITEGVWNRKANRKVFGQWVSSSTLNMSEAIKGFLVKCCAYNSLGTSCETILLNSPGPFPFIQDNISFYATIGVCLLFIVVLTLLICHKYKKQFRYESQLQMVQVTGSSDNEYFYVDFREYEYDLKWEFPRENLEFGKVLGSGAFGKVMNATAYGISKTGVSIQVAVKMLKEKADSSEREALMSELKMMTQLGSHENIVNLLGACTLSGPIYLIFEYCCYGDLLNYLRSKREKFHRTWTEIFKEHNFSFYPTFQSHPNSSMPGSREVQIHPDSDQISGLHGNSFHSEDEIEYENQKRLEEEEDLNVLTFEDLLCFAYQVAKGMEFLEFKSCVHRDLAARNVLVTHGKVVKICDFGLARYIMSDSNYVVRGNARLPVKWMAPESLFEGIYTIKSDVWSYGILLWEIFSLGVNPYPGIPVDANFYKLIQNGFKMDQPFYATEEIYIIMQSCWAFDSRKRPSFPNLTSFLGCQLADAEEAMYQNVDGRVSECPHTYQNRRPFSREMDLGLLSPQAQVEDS
Protocol: as §1
2. FLT3 kinase (Carna, Cat. No. 08-154, Lot. No. 07CBS-2350), FLT3-ITD kinase (Invitrogen, Cat. No. PV6191, Lot. No. 1753453) and FLT3-D835Y kinase (Invitrogen, Cat. No. PR7450A, Lot. No. 1629729C) were diluted to the optimum concentration with the following buffer solution: 50 mM HEPES, pH 7.5, 0.0015% Brij-35, 10 mM MgCl2, 2 mM DTT. Transfer to the 96-well plate and incubate with the compound at 28° C. for a period of time.
as §2, §3

FYN kinase = molecular target: T5, FYN kinase (Homo sapiens, UniProt P06241); assay: IC50 evaluation assay of Src family kinase inhibition: FYN; conditions: 28° C.; average of two tests; read-out: IC50 (nM) inhibiting Src family kinase FYN
T5 construct: purchased Carna 08-068
T5 sequence (P06241 whole entry): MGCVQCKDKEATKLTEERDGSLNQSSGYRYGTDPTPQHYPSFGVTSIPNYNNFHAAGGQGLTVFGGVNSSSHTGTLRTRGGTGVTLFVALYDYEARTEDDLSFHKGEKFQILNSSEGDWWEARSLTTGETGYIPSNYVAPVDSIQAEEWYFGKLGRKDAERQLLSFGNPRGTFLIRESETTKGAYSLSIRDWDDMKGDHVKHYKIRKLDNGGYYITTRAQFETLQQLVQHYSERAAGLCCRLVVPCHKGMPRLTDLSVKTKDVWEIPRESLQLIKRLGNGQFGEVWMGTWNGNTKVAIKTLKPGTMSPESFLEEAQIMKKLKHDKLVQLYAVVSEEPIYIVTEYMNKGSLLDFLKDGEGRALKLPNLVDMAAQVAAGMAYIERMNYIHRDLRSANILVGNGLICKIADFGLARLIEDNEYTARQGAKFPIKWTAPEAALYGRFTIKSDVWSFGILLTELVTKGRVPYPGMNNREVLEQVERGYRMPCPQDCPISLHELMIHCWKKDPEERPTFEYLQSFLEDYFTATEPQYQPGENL
Protocol: as §1, §4, §2, §3

FGFR 3 = molecular target: T6, FGFR 3 (Homo sapiens, UniProt P22607); assay: IC50 evaluation assay of FGFR3 kinase inhibition (Caliper); conditions: 28° C.; average of two tests; read-out: IC50 (nM) inhibiting FGFR 3 kinase
T6 construct: purchased Carna 08-135
T6 sequence (P22607 23-806): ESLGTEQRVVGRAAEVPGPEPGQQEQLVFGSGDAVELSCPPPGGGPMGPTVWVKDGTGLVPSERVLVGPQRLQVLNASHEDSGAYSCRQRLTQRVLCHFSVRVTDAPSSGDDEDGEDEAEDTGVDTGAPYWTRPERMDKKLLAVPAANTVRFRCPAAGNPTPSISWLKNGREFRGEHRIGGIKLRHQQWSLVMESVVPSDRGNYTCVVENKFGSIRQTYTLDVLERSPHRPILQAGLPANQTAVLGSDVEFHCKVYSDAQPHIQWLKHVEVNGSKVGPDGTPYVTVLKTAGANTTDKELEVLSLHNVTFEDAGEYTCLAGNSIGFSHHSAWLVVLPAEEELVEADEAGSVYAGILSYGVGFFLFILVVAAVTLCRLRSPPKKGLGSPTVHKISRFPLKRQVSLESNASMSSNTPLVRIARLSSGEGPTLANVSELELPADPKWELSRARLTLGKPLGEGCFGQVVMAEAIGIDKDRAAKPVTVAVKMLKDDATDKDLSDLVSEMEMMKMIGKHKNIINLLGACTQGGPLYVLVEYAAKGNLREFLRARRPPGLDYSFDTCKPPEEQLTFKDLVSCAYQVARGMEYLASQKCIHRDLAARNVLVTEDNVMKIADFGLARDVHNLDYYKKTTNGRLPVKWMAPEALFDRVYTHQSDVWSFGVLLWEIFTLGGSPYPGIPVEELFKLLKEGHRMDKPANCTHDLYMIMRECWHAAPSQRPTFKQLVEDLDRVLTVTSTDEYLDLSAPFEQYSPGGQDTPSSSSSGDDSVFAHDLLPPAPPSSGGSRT

YES kinase = molecular target: T7, YES kinase (Homo sapiens, UniProt P07947); assay: IC50 evaluation assay of Src family kinase inhibition: YES; conditions: 28° C.; average of two tests; read-out: IC50 (nM) inhibiting Src family kinase YES
T7 construct: purchased Carna 08-175
T7 sequence (P07947 whole entry): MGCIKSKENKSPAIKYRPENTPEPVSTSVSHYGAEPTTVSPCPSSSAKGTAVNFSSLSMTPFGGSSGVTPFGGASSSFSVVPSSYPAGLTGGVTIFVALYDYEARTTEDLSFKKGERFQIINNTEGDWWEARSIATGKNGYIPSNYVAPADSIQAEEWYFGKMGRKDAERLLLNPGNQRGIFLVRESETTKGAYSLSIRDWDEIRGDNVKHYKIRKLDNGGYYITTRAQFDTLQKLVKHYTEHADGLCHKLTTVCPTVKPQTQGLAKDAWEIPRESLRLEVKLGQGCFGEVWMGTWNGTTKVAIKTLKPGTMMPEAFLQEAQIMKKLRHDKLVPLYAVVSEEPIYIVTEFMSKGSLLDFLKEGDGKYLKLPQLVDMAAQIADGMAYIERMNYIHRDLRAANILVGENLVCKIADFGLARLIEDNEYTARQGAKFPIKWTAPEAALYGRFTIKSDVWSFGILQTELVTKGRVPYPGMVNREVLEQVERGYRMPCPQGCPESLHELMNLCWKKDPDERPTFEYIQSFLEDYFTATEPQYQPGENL
Protocol: as §1, §4, §2, §3

HCK kinase = molecular target: T8, HCK kinase (Homo sapiens, UniProt P08631); assay: IC50 evaluation assay of Src family kinase inhibition: HCK; conditions: 28° C.; average of two tests; read-out: IC50 (nM) inhibiting Src family kinase HCK
T8 construct: purchased BPS 40440
T8 sequence (P08631 whole entry): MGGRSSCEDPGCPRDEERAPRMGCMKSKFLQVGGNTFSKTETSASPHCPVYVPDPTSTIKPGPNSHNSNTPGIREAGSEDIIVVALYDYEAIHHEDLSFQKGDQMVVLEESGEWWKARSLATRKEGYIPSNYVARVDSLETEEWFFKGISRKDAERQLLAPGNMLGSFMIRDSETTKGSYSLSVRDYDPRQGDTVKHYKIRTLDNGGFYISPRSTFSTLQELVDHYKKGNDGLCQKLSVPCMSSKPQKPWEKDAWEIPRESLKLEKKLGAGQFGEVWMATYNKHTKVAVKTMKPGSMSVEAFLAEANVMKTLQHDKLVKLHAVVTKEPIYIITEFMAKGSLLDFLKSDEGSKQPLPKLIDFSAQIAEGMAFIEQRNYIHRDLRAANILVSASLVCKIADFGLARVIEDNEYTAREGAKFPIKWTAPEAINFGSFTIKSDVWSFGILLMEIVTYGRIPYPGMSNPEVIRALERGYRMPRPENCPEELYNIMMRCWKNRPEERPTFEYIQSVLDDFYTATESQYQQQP
Protocol: as §1, §4, §2, §3

LCK kinase = molecular target: T9, LCK kinase (Homo sapiens, UniProt P06239); assay: IC50 evaluation assay of Src family kinase inhibition: LCK; conditions: 28° C.; average of two tests; read-out: IC50 (nM) inhibiting Src family kinase LCK
T9 construct: purchased Carna 08-170
T9 sequence (P06239 whole entry): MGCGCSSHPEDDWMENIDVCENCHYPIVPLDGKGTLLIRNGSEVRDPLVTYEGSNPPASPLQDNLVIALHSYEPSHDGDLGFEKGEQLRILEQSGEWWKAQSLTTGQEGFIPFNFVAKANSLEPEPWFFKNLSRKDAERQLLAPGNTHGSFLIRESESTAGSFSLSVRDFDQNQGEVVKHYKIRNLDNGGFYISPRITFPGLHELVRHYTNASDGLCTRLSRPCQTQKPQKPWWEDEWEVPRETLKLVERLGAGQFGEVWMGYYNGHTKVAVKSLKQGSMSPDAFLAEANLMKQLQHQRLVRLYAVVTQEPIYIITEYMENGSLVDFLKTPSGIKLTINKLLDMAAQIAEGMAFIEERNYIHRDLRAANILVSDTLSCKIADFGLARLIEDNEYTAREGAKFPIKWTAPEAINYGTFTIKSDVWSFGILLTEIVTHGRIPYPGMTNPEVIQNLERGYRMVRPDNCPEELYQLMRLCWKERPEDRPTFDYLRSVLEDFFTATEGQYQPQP
Protocol: as §1, §4, §2, §3

| IC50 (FGFR1 kinase) | IC50 (c-Src kinase) | IC50 (LYNα kinase) | IC50 (FLT3-D835Y kinase) | IC50 (FYN kinase) | IC50 (FGFR 3) | IC50 (YES kinase) | IC50 (HCK kinase) | IC50 (LCK kinase) | Structure (SMILES) |
| --- | --- | --- | --- | --- | --- | --- | --- | --- | --- |
| 5.1 nM | 6 nM | 1.3 nM | 0.2 nM | 3.7 nM | 16 nM | 5.8 nM | 30 nM | 5.5 nM | COc1cc(F)ccc1-c1c(C)sc2cnc(Nc3cnn(C4CCNCC4)c3)nc12 [Compound 31, N-[7-(4-fluoro-2-methoxyphenyl)-6-methylthieno[3,2-d]pyrimidinyl-2-yl]-1-(piperidinyl-4-yl)-1H-pyrazol-4-amine] |
| 3.8 nM | 6.3 nM | < 5 nM | 0.23 nM | < 5 nM | 15 nM | 6.8 nM | 27 nM | < 5 nM | COc1cc(F)ccc1-c1c(C)sc2cnc(Nc3cnn(C4CCN(CCO)CC4)c3)nc12 [Compound 34, 2-[4-(4-{[7-(4-fluoro-2-methoxyphenyl)-6-methylthieno[3,2-d]pyrimidinyl-2-yl]amino}-1H-pyrazol-1-yl)-piperidinyl-1-yl]-1-ethanol] |
